Data reported in US20240109865A1, “INDAZOLE COMPOUNDS AS KINASE INHIBITORS” (TYRA BIOSCIENCES, INC., priority 2020, published 2024).
Read-outs that look alike come from different tables or passages of the source.

Tests used:
[1] = biological target: FGFR3-BAIAP2L1 Ba/F3 cells (Homo sapiens, UniProt P22607); test: Ba/F3 cell viability assay (CellTiter-Glo 2.0), FGFR3-BAIAP2L1 Ba/F3; format: cell-based; conditions: for Ba/F3 FGFR1/FGFR3 Selectivity: FGFR3 > FGFR1 selectivity ratio in Ba/F3 FGFR fusion cell based assays; for IC50: read-out: Ba/F3 Cells FGFR3 (IC50 nM), FGFR3-BAIAP2L1 Ba/F3 cells, 48 hours, Cell Titer Glo 2.0
Sequence of FGFR3-BAIAP2L1 Ba/F3 cells (P22607 23-806 limits assumed, change not shown): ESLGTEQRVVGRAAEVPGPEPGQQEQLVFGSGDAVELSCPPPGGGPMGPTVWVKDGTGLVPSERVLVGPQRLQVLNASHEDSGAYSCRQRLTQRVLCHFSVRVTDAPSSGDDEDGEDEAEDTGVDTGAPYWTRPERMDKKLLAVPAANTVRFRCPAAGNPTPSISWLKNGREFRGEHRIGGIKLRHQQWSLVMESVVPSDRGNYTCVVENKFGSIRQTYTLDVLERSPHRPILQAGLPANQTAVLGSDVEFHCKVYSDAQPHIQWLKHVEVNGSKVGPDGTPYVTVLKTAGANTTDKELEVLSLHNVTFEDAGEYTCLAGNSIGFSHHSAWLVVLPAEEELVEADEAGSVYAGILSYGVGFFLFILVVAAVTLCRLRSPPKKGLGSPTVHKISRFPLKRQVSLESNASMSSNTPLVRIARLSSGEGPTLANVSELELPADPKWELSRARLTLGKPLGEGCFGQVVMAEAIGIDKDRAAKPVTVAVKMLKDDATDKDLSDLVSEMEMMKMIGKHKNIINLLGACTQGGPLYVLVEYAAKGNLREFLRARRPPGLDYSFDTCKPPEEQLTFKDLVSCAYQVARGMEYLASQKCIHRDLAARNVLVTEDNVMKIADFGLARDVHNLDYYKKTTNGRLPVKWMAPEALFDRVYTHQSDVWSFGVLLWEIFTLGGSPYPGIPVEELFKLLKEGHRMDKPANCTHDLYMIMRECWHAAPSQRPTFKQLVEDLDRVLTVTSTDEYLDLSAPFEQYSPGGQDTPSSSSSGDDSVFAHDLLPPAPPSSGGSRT
Excerpt: (§1) Experimental Purpose: Recombinant kinase fusions are transduced into parental Ba/F3, which becomes dependent upon this constitutive kinase activity for IL3-independent survival. Inhibition of kinase activity leads to cell death, which is monitored using CellTiter-Glo® 2.0 (Promega) which measures intracellular ATP concentration that in turn serves as a marker for viability. FGFR1-BCR Ba/F3 and FGFR3-BAIAP2L1 Ba/F3 were obtained from Advanced Cellular Dynamics (Seattle, WA)
(§2) Cell Viability Assay Procedure: Cell Titer-Glo® 2.0 Luminescent cell viability assay reagent was purchased from Promega (Madison, WI). FGFR1-BCR Ba/F3 and FGFR3-BAIAP2L1 Ba/F3 cells were cultured in RPMI1640 media supplemented with 10% fetal bovine serum. Cultures were maintained at 37° C. in a humidified atmosphere of 5% C02 and 95% air.
(§3) Cells were plated in 96-well clear bottom/white plates (Corning #3903) at 10,000 cells/well in 100 μl of media, incubated overnight. The next day, test compound DMSO stock solutions were made at 10 mM and 2 μM final concentration. Compounds were then added to cells in a 9-dose, 10-fold dilution series starting at 30 μM with an HP 300e Digital Dispenser (each dose was applied in triplicate). DMSO was backfilled to each well up to 301 nL total volume of test compound+DMSO, and a total of 301 nL DMSO was added to a control/no test compound well in triplicate. The cells in cell culture plates were incubated with the compounds at 37° C. and 5% C02 for 48 hours. Then 50 μl of Cell Titer Glo 2.0 reagent was added to each well of the cell culture plates. The contents were covered from light and mixed on an orbital shaker at room temperature for 10 min. Luminescence was recorded by a Synergy H1 Microplate Reader (Biotek, Winooski, VT). Cells were assessed as a percentage of DMSO only treated control cells. Curves were plotted and IC50 values were calculated using the GraphPad Prism 8 program based on a sigmoidal dose-response equation (4 parameter).

FGFR3 (V555M) = FGFR3 (V555M) (Homo sapiens (Human), UniProt P22607, V555M); test: Kinase assay, binding constants (Kd), kinase-tagged T7 phage, qPCR; conditions: V555M mutant
Sequence of FGFR3 (V555M) (P22607 23-806 V555M): as the sequence (P22607 23-806 limits assumed, change not shown) above, with V533M counted along it
In short: (§4)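 Using T7 phage lysates from BL21-derived E. coli, compounds at 0.9% final DMSO competed for kinase binding to ligand-bearing magnetic beads. After elution, qPCR measured remaining kinase, and Kds were fitted by non-linear least squares with the Hill slope fixed at −1.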

FGFR2 = FGFR2 (Homo sapiens (Human), UniProt P21802); test: as above
Sequence of FGFR2 (P21802 22-821): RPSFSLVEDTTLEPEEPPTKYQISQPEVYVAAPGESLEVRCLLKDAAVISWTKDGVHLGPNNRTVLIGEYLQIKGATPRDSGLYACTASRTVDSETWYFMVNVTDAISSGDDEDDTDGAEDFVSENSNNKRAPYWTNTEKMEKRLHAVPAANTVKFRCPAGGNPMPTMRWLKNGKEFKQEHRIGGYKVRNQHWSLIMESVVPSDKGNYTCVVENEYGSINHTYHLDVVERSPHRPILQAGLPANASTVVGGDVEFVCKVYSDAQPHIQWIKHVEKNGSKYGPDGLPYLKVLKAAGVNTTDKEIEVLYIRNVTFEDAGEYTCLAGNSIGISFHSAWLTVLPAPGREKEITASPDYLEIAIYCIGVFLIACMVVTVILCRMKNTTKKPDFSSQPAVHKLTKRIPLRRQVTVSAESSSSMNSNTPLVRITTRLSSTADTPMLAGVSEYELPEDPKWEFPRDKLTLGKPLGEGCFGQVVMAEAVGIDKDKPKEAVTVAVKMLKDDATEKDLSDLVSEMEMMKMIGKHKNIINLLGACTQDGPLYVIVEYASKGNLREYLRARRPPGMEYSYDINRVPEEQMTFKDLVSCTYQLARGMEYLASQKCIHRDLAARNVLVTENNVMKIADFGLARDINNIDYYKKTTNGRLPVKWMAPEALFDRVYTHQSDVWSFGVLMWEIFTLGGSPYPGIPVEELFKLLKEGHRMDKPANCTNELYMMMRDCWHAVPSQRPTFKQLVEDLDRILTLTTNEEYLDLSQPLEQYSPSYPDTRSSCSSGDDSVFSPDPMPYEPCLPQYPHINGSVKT
In short: as §4

FGFR4 = FGFR4 (Homo sapiens (Human), UniProt P22455); test: as above
Sequence of FGFR4 (P22455 22-802): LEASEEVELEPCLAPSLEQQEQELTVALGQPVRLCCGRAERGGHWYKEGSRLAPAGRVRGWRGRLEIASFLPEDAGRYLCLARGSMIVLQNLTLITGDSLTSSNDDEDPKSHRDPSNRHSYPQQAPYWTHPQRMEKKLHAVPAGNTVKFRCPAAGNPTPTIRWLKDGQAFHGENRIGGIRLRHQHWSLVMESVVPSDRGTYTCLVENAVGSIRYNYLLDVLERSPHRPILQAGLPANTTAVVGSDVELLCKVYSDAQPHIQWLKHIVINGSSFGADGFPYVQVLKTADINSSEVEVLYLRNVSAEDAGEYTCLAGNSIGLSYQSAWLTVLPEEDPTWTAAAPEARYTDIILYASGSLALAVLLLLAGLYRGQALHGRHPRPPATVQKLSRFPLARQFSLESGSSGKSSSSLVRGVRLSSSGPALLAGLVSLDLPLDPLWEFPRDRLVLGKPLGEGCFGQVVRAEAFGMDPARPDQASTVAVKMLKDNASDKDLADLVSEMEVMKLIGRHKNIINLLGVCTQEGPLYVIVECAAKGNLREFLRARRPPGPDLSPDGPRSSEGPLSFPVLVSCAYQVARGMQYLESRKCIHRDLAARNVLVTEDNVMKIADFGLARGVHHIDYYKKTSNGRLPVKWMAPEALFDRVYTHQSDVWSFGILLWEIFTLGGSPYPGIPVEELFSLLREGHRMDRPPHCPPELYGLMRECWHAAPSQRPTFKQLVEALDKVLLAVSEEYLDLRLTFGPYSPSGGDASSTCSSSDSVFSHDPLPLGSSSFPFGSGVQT
In short: as §4

FGFR1 = FGFR1 (Homo sapiens (Human), UniProt P11362); test: as above
Sequence of FGFR1 (P11362 22-822): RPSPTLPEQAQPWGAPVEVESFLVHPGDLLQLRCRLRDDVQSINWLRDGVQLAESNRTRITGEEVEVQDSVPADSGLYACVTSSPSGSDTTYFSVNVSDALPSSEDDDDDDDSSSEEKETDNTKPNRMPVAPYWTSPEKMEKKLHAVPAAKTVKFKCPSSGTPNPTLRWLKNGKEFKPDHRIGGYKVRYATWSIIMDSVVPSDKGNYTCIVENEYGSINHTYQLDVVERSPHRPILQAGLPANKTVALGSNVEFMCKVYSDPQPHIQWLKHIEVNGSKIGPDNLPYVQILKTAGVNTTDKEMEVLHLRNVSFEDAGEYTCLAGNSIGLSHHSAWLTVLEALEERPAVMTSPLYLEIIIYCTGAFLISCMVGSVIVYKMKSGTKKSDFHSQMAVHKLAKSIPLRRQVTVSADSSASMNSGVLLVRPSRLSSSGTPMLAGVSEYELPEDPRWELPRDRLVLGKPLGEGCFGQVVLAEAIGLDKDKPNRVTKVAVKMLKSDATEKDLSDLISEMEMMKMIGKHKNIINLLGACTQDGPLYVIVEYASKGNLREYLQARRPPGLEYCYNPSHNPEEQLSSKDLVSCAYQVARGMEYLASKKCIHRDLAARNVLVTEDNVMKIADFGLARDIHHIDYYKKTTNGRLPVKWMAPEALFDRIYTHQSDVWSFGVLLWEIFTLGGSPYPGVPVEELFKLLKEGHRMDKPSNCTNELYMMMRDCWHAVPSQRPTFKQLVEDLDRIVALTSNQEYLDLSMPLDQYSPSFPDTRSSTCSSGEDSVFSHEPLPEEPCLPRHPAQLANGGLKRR
In short: as §4

FGFR3 = FGFR3 (Homo sapiens (Human), UniProt P22607); test: as above
Sequence of FGFR3 (P22607 23-806): as the sequence (P22607 23-806 limits assumed, change not shown) above
In short: as §4

FGFR1-BCR Ba/F3 cells = FGFR1-BCR Ba/F3 cells (Homo sapiens, UniProt P11362); test: Ba/F3 cell viability assay (CellTiter-Glo 2.0), FGFR1-BCR Ba/F3; format: cell-based; conditions: read-out: Ba/F3 Cells FGFR1 (IC50 nM), 48 hours, Cell Titer Glo 2.0
Sequence of FGFR1-BCR Ba/F3 cells (P11362 22-822 limits assumed, change not shown): as the sequence (P11362 22-822) above
Excerpt: as §1, §2, §3

Cc1cncc(C)c1[C@H](C)Oc1ccc2[nH]nc(-c3ccc(N4CC5(C4)CN(S(C)(=O)=O)C5)nc3)c2c1 [Example 140, 5-[(1S)-1-(3,5-dimethyl-4-pyridyl)ethoxy]-3-[6-(2-methylsulfonyl-2,6-diazaspiro[3.3]heptan-6-yl)-3-pyridyl]-1H-indazole]
Ba/F3 FGFR1/FGFR3 Selectivity [1]: 19
IC50 [1]: 100 to 300 nM
Kd (FGFR3 (V555M)): 1 to 20 nM
Kd (FGFR2): > 300 nM
Kd (FGFR4): > 300 nM
Kd (FGFR1): > 300 nM
Kd (FGFR3): 20 to 100 nM
IC50 (FGFR1-BCR Ba/F3 cells): > 300 nM

C[C@@H](Oc1ccc2[nH]nc(-c3cnc(N4CCC5(CC4)C(=O)NCCN5C)nc3)c2c1)c1c(Cl)cncc1Cl [Example 58, 9-[5-[5-[(1R)-1-(3,5-dichloro-4-pyridyl)ethoxy]-1H-indazol-3-yl]pyrimidin-2-yl]-1-methyl-1,4,9-triazaspiro[5.5]undecan-5-one]
Ba/F3 FGFR1/FGFR3 Selectivity [1]: 11
IC50 [1]: 20 to 100 nM
Kd (FGFR3 (V555M)): 1 to 20 nM
Kd (FGFR2): 20 to 100 nM
Kd (FGFR4): 1 to 20 nM
Kd (FGFR1): 20 to 100 nM
Kd (FGFR3): 1 to 20 nM
IC50 (FGFR1-BCR Ba/F3 cells): 100 to 300 nM

CC(C)OC(=O)N1CCCC2(C1)CN(c1ncc(-c3n[nH]c4ccc(O[C@H](C)c5c(Cl)cncc5Cl)cc34)cn1)C2 [Example 135, isopropyl 2-[5-[5-[(1R)-1-(3,5-dichloro-4-pyridyl)ethoxy]-1H-indazol-3-yl]pyrimidin-2-yl]-2,8-diazaspiro[3.5]nonane-8-carboxylate]
Ba/F3 FGFR1/FGFR3 Selectivity [1]: 9
IC50 [1]: 100 to 300 nM
Kd (FGFR3 (V555M)): 1 to 20 nM
Kd (FGFR2): > 300 nM
Kd (FGFR4): 1 to 20 nM
Kd (FGFR1): > 300 nM
Kd (FGFR3): 20 to 100 nM
IC50 (FGFR1-BCR Ba/F3 cells): > 300 nM

C[C@@H](Oc1ccc2[nH]nc(-c3ccc(F)nc3)c2c1)c1c(Cl)cncc1Cl [Example 25, 5-[(1R)-1-(3,5-Dichloro-4-pyridyl)ethoxy]-3-(6-fluoro-3-pyridyl)-1H-indazole]
Ba/F3 FGFR1/FGFR3 Selectivity [1]: 22
IC50 [1]: 20 to 100 nM
Kd (FGFR3 (V555M)): 1 to 20 nM
Kd (FGFR2): 20 to 100 nM
Kd (FGFR4): 20 to 100 nM
Kd (FGFR1): 20 to 100 nM
Kd (FGFR3): 1 to 20 nM
IC50 (FGFR1-BCR Ba/F3 cells): > 300 nM

C[C@@H](Oc1ccc2[nH]nc(-c3cnc(N4CC5(CCCS(=O)(=O)C5)C4)nc3)c2c1)c1c(Cl)cncc1Cl [Example 129, 2-[5-[5-[(1R)-1-(3,5-dichloro-4-pyridyl)ethoxy]-1H-indazol-3-yl]pyrimidin-2-yl]-6λ^6-thia-2-azaspiro[3.5]nonane 6,6-dioxide]
Ba/F3 FGFR1/FGFR3 Selectivity [1]: 6
IC50 [1]: 20 to 100 nM
Kd (FGFR3 (V555M)): 1 to 20 nM
Kd (FGFR2): 20 to 100 nM
Kd (FGFR4): 1 to 20 nM
Kd (FGFR1): 20 to 100 nM
Kd (FGFR3): 1 to 20 nM
IC50 (FGFR1-BCR Ba/F3 cells): 100 to 300 nM

COC(=O)N1CCN(c2ccc(-c3n[nH]c4ccc(O[C@H](C)c5c(Cl)cncc5Cl)cc34)cn2)CC1 [Example 7, Methyl 4-[5-[5-[(1R)-1-(3,5-dichloro-4-pyridyl)ethoxy]-1H-indazol-3-yl]-2-pyridyl]piperazine-1-carboxylate]
Ba/F3 FGFR1/FGFR3 Selectivity [1]: 15
IC50 [1]: 20 to 100 nM
Kd (FGFR3 (V555M)): 1 to 20 nM
Kd (FGFR2): 20 to 100 nM
Kd (FGFR4): 1 to 20 nM
Kd (FGFR1): 1 to 20 nM
Kd (FGFR3): 1 to 20 nM
IC50 (FGFR1-BCR Ba/F3 cells): > 300 nM

C[C@@H](Oc1ccc2[nH]nc(-c3cnc(N4CCC5(CCNC5=O)CC4)nc3)c2c1)c1c(Cl)cncc1Cl [Example 55, 8-[5-[5-[(1R)-1-(3,5-dichloro-4-pyridyl)ethoxy]-1H-indazol-3-yl]pyrimidin-2-yl]-2,8-diazaspiro-[4.5]decan-1-one]
Ba/F3 FGFR1/FGFR3 Selectivity [1]: 16
IC50 [1]: 20 to 100 nM
Kd (FGFR3 (V555M)): 1 to 20 nM
Kd (FGFR2): 20 to 100 nM
Kd (FGFR4): 1 to 20 nM
Kd (FGFR1): 20 to 100 nM
Kd (FGFR3): 1 to 20 nM
IC50 (FGFR1-BCR Ba/F3 cells): > 300 nM

C[C@@H](Oc1ccc2[nH]nc(-c3ccc(N4CC5(CCCN(S(C)(=O)=O)C5)C4)nc3)c2c1)c1c(Cl)cncc1Cl [Example 162, 5-[(1R)-1-(3,5-dichloro-4-pyridyl)ethoxy]-3-[6-(8-methylsulfonyl-2,8-diazaspiro[3.5]nonan-2-yl)-3-pyridyl]-1H-indazole]
Ba/F3 FGFR1/FGFR3 Selectivity [1]: 12
IC50 [1]: 1 to 20 nM
Kd (FGFR3 (V555M)): 1 to 20 nM
Kd (FGFR2): 1 to 20 nM
Kd (FGFR4): 1 to 20 nM
Kd (FGFR1): 20 to 100 nM
Kd (FGFR3): 1 to 20 nM
IC50 (FGFR1-BCR Ba/F3 cells): 100 to 300 nM

C[C@@H](Oc1ccc2[nH]nc(-c3cnn(C4CCN(C(=O)N(C)C)CC4)c3)c2c1)c1c(Cl)cncc1Cl [Example 67, 4-[4-[5-[(1R)-1-(3,5-dichloro-4-pyridyl)ethoxy]-1H-indazol-3-yl]pyrazol-1-yl]-N,N-dimethyl-piperidine-1-carboxamide]
Ba/F3 FGFR1/FGFR3 Selectivity [1]: 12
IC50 [1]: 1 to 20 nM
Kd (FGFR3 (V555M)): 1 to 20 nM
Kd (FGFR2): 1 to 20 nM
Kd (FGFR4): 1 to 20 nM
Kd (FGFR1): 1 to 20 nM
Kd (FGFR3): 1 to 20 nM
IC50 (FGFR1-BCR Ba/F3 cells): 20 to 100 nM

C[C@@H](Oc1ccc2[nH]nc(-c3ccc(N4CCCNC(=O)C4)nc3)c2c1)c1c(Cl)cncc1Cl [Example 35, 4-[5-[5-[(1R)-1-(3,5-dichloro-4-pyridyl)ethoxy]-1H-indazol-3-yl]-2-pyridyl]-1,4-diazepan-2-one]
Ba/F3 FGFR1/FGFR3 Selectivity [1]: 6
IC50 [1]: 20 to 100 nM
Kd (FGFR3 (V555M)): 1 to 20 nM
Kd (FGFR2): 20 to 100 nM
Kd (FGFR4): 1 to 20 nM
Kd (FGFR1): 20 to 100 nM
Kd (FGFR3): 1 to 20 nM
IC50 (FGFR1-BCR Ba/F3 cells): > 300 nM

Cc1cnnc(C)c1[C@@H](C)Oc1ccc2[nH]nc(-c3ccc(N4CC5(CCS(=O)(=O)C5)C4)nc3)c2c1 [Example 144, 2-[5-[5-[(1R)-1-(3,5-dimethylpyridazin-4-yl)ethoxy]-1H-indazol-3-yl]-2-pyridyl]-6λ^6-thia-2-azaspiro[3.4]octane 6,6-dioxide]
Ba/F3 FGFR1/FGFR3 Selectivity [1]: 33
IC50 [1]: 20 to 100 nM
Kd (FGFR3 (V555M)): 1 to 20 nM
Kd (FGFR2): 1 to 20 nM
Kd (FGFR4): 1 to 20 nM
Kd (FGFR1): 1 to 20 nM
Kd (FGFR3): 1 to 20 nM
IC50 (FGFR1-BCR Ba/F3 cells): > 300 nM

Cc1ncc(Cl)c([C@@H](C)Oc2ccc3[nH]nc(-c4cnc(N5CC6(CCCN(S(C)(=O)=O)C6)C5)c(C#N)c4)c3c2)c1Cl [Example 350, 5-[5-[(1R)-1-(3,5-dichloro-2-methyl-4-pyridyl)ethoxy]-1H-indazol-3-yl]-2-(8-methylsulfonyl-2,8-diazaspiro[3.5]nonan-2-yl)pyridine-3-carbonitrile]
Kd (FGFR3 (V555M)): 20 to 100 nM
Kd (FGFR2): 100 to 300 nM
Kd (FGFR4): 1 to 20 nM
Kd (FGFR1): > 300 nM
Kd (FGFR3; given as a number): 90 nM

Cc1cc(-c2n[nH]c3ccc(O[C@H](C)c4c(Cl)cnc(C)c4Cl)cc23)cnc1N1CC2(CCOC2)C1 [Example 217, 2-[5-[5-[(1R)-1-(3,5-dichloro-2-methyl-4-pyridyl)ethoxy]-1H-indazol-3-yl]-3-methyl-2-pyridyl]-6-oxa-2-azaspiro[3.4]octane]
Kd (FGFR3 (V555M)): 1 to 20 nM
Kd (FGFR2): 20 to 100 nM
Kd (FGFR4): 1 to 20 nM
Kd (FGFR1): 100 to 300 nM
Kd (FGFR3): 1 to 20 nM

COc1cc2[nH]nc(-c3cnc(N4CC5(C4)CN(S(C)(=O)=O)C5)nc3)c2cc1O[C@H](C)c1c(Cl)cnc(C)c1Cl [Example 240, 5-[(1R)-1-(3,5-dichloro-2-methyl-4-pyridyl)ethoxy]-6-methoxy-3-[2-(2-methylsulfonyl-2,6-diazaspiro[3.3]heptan-6-yl)pyrimidin-5-yl]-1H-indazole]
Kd (FGFR3 (V555M)): 1 to 20 nM
Kd (FGFR2): 1 to 20 nM
Kd (FGFR4): 1 to 20 nM
Kd (FGFR1): 1 to 20 nM
Kd (FGFR3): 1 to 20 nM

Cc1cnnc(C)c1[C@@H](C)Oc1ccc2[nH]nc(-c3cnc(N4CC5CC(C4)N5CC(C)(C)O)c(C#N)c3)c2c1 [Example 312, 5-(5-((R)-1-(3,5-dimethylpyridazin-4-yl)ethoxy)-1H-indazol-3-yl)-2-(6-(2-hydroxy-2-methylpropyl)-3,6-diazabicyclo[3.1.1]heptan-3-yl)nicotinonitrile]
Kd (FGFR3 (V555M)): 1 to 20 nM
Kd (FGFR2): 1 to 20 nM
Kd (FGFR4): 1 to 20 nM
Kd (FGFR1): 1 to 20 nM
Kd (FGFR3): 1 to 20 nM
